Experimental data from article PMC2962730 (Journal of neurochemistry, 2010).
Substitutions are numbered along the chain they refer to.

How the values were obtained:
hVAChT W315A = target: T1, hVAChT W315A (Homo sapiens, UniProt Q16572, W315A); experiment: [3H]ACh transport; type: biochemical
T1 sequence (Q16572 1-532 W315A): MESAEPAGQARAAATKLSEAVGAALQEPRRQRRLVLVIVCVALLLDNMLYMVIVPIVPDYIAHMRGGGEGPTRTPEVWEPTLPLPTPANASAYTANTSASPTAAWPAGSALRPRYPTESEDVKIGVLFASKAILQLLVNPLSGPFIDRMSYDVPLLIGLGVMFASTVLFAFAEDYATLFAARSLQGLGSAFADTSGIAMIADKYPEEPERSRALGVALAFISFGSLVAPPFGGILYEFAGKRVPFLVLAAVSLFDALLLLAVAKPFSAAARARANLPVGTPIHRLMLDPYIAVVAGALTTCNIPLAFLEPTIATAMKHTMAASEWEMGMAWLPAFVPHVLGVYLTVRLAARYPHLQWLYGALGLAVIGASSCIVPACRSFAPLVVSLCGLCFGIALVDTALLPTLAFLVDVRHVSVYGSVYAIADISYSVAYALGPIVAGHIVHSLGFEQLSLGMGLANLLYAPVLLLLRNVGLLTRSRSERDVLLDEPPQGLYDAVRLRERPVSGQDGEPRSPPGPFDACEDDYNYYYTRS

hVAChT K317A = target: T2, hVAChT K317A (Homo sapiens, UniProt Q16572, K317A); experiment: [3H]ACh transport; type: biochemical
T2 sequence (Q16572 1-532 K317A): T1 sequence (Q16572 1-532 W315A) with A315W, K317A

hVAChT M320A = target: T3, hVAChT M320A (Homo sapiens, UniProt Q16572, M320A); experiment: ACh equilibrium binding by competition against [3H]vesamicol
T3 sequence (Q16572 1-532 M320A): T1 sequence (Q16572 1-532 W315A) with A315W, M320A

hVAChT wild-type = target: T4, hVAChT wild-type (Homo sapiens, UniProt Q16572); experiment: [3H]vesamicol saturation binding; conditions: WT hVAChT; pH 7.4; per mg postnuclear supernatant
T4 sequence (Q16572 1-532): T1 sequence (Q16572 1-532 W315A) with A315W

hVAChT Y60H = target: T5, hVAChT Y60H (Homo sapiens, UniProt Q16572, Y60H); experiment: [3H]vesamicol saturation binding; conditions: pH 7.4
T5 sequence (Q16572 1-532 Y60H): T1 sequence (Q16572 1-532 W315A) with Y60H, A315W

[1] = read-out: KM, Michaelis-Menten constant for ACh transport, pH 7.4

Compound | Vmax/Bmax, ACh transport normalized to Bmax (hVAChT W315A; pH 7.4) [min⁻¹] | Km (hVAChT W315A; [1]) [µM] | Vmax/Bmax, ACh transport normalized to Bmax (hVAChT K317A; pH 7.4) [min⁻¹] | Km (hVAChT K317A; [1]) [µM] | Kd (hVAChT M320A) [mM] | FHA, fraction of the ACh sites that have high affinity (hVAChT M320A; M320A hVAChT, pH 7.4) | Bmax, maximal specific [3H]vesamicol binding (VAChT expression level) (hVAChT wild-type) [pmol/mg] | Bmax, maximal specific [3H]vesamicol binding (VAChT expression level) (hVAChT Y60H) [pmol/mg]
CC(=O)OCC[N+](C)(C)C [ACh, acetylcholine] | 5.2 ± 0.8 | 690 ± 220 | 17.8 ± 3.9 | 3200 ± 1200 | 9.2 ± 0.8 | 0.73 ± 0.11 |  | 
O[C@@H]1CCCC[C@H]1N1CCC(c2ccccc2)CC1 (racemic) [vesamicol, ( )-trans-2-(4-phenylpiperidino)cyclohexanol] |  |  |  |  |  |  | 50 ± 1 | 15 ± 1
